The structures appear in SMILES notation.

On to `Cc1noc(NS(=O)(=O)c2c(Cc3ccc4c(c3)OCO4)sc3ccccc23)c1Cl`, for which the melting point (as a rule, the temperature of the solid-liquid transition) lay within 178 to 181 °C.

With `CCC1CC2C3CCC4=CC(=O)CCC4C3CCC2(C)C1OC(=O)CO` (configuration not stated), the melting point is 156 to 157 °C. Compound `CC(C)(C)CC(C)(CO)C(=O)O` (configuration not stated) registered a melting point of 96.5 to 100 °C. For the compound `CCCCCCCCCCCCCCOc1ccc(CNc2cccc(CO)c2)cc1`, the melting point was in the range of 72 to 75 °C.

`NCCON=C(CCCCCCNC(=NS(=O)(=O)c1ccc(Cl)cc1)N1CC(c2ccccc2)C(c2ccc(Cl)cc2)=N1)c1ccc(C(F)(F)F)cc1` (configuration not stated) registered a melting point of 53 to 58 °C. With `CCC1(CC)Cc2c(C(=O)O)ccc(OC)c2O1` the figure was 152 to 154 °C; with `Cc1ccccc1CC(C)(C)NC(C)(O)c1ccc(O)c(O)c1C` (configuration not stated), 166 to 169 °C. With `CC(=O)Oc1ccc2c(c1)C[C@H]1CCCN(C(C)=O)[C@H]1C2` (relative stereo) the figure was 108 to 113 °C; with `OC(COC1CCCCO1)(Cn1cncn1)c1ccc(Cl)cc1` (configuration not stated), 70 °C; with `CC1(C)CCC(Br)(C(Br)c2ccc(Cl)cc2)C(=O)C1` (configuration not stated), 114 to 115 °C. With `CCCCn1c(=O)c2ncn(C)c2c2cccnc21` the figure was 198 to 202 °C. `CC1(C)OC(C=Cc2ccc(C#N)cc2)=CC1=O` showed a melting point of 170 °C. With `CC(Nc1nc2ccc(Cl)cc2cc1C(=O)O)C(=O)Nc1ccc2ccccc2c1` (configuration not stated) the figure was 230 to 243 °C; with `COC(=O)C1=C(C=O)NC(C)=C(C(=O)OCC(C)C)C1c1ccccc1C#N` (configuration not stated), 152 to 154 °C. Compound `COC(=O)CCn1c(=O)n(CCN2CCN(c3ccccc3OC)CC2)c(=O)c2sccc21` yielded a melting point of 151 to 152 °C. With `Cc1nc2c(OCc3c(N)cccc3Cl)cccn2c1Br` the figure was 177 to 178 °C; with `CCCSc1c(C=NO)c(=O)n(C)c(=O)n1C`, 161 to 162 °C; with `CC(C)(C)OC(=O)N[C@H]1CCc2ccc(OCCCC(=O)O)cc2C1`, 150 to 153 °C. For the compound `C=C1CC(C)(c2ccc(Nc3c4ccccc4nc4occc34)cc2)OC1=O` (configuration not stated), the melting point lay in the range of 85 to 87 °C. The same measure for `COc1cccc(-c2c(/C=C/C(=O)NCCCCc3cccnc3)ccc3ccc(OC)cc23)c1`: 108 to 110 °C. The same measure for `CCCC1=C(C(=O)OCC)C(C(C)C)n2ncc(C(=O)OCC)c2N1Cc1ccc(-c2ccccc2-c2nnn[nH]2)cc1` (configuration not stated): 183 to 184 °C; for `CC1(C)[C@@H](CS(=O)(=O)c2ccc(S(C)(=O)=O)cc2)CC[C@@]1(C)NCC(=O)N1C[C@@H](F)C[C@H]1C#N`: 163 to 166 °C; for `COC(=O)CCc1cc2cc(Cl)ccc2n1S(=O)(=O)c1ccc(C(C)=O)cc1`: 83 to 87 °C. The same measure for `CCOC(=O)Cn1c(CC(=O)O)cc2c(Cl)c(Cl)ccc21`: 205 to 207 °C; for `COc1ccccc1-n1nnc2cc(F)c(N)cc21`: 128 to 129 °C; for `Cc1ccccc1Oc1cccc2c1OC(=O)CC2`: 80 to 82 °C. Regarding `Cc1c(C)c2c(c(C)c1OCc1ccccc1)C(c1ccc(N(C)C)cc1)C(C)(C)O2` (configuration not stated), the melting point lay within 110 to 112 °C. With `Cc1cccc(C(N)=NO)c1C` the figure was 110 to 111 °C; with `O=C(O)c1ccc(C2(F)CC2c2ccc(Cl)cc2)cc1` (configuration not stated), 204 °C; with `CC(C)(C)OC(=O)Nc1cc(N2CCOCC2)c(C#Cc2ccccc2)cc1N`, 174 to 176 °C. The same measure for `COc1ccc(Nc2ncc3cc(-c4c(Cl)cccc4Cl)c(=O)n(C)c3n2)cc1C`: 218 to 220 °C; for `CCCCCS(=O)(=O)NC(=O)c1ccc2nc(C)n(Cc3ccc(N(C)CC)cc3Cl)c2n1`: 148 to 149 °C.

`CCc1c(C)nc(OC)c(NC(=O)C(C)(C)C)c1Cc1cc(C)cc(C)c1`: the melting point was 138 to 139 °C. With `OCCCNC1=Nc2ccccc2C1(O)c1cccc(Cl)c1` (configuration not stated) the figure was 164 to 165 °C. With `CCn1c(=O)n(CCc2ccc(C)cc2)c(=O)n(C(C)(C)C)c1=O` the figure was 64 °C.

In turn, `CC(C)C(N)CN1CCC(Nc2nc3ccccc3[nH]2)CC1` (configuration not stated) came in with a melting point of 138 °C. On to `OCCCN1c2ccccc2CCc2sccc21`, for which the melting point was found to be 73 °C. With `CCCN=C(NC#N)NCCSCc1[nH]cnc1C` the figure was 108 to 110 °C; with `CC12CC3CC(C)(C1)CC(C(=O)NCCc1cccs1)(C3)C2`, 131 to 132 °C. The same measure for `C#Cc1c(C#N)nn(-c2c(Cl)cc(C(F)(F)F)cc2Cl)c1Cl`: 109 to 110 °C; for `O=C(O)[C@H](Cc1ccc([N+](=O)[O-])cc1)NC1=CC(=O)C12CCCCC2`: 120 °C. With `O=c1[nH]c2ccc(Cn3ccnc3)cc2[nH]c1=O` the figure was greater than 300 °C. In turn, `CN1C(=O)CC[C@]2(C)c3ccc(-c4ccc(F)cc4C(F)(F)F)cc3CC[C@@H]12` came in with a melting point of 70 °C. With `CC(O)CC1NC(=O)c2sccc2-n2cccc21` (configuration not stated) the figure was 170 °C; with `Oc1ccc(CC(=S)Nc2ncc(-c3ccc(O)cc3)nc2Cc2ccccc2)cc1`, 101 to 103 °C. The compound `CCCCCCc1ccc(CCCCC(COC(C)=O)(COC(C)=O)NC(C)=O)cc1` came in with a melting point of 61 to 64 °C. The same measure for `COC(=O)c1cc(OCc2cccc(Cl)c2)ccc1OCCCC#N`: 97 to 98 °C; for `CC(C)n1nc(-c2c(-c3ccccc3)nn3ccc(O)cc23)ccc1=O`: greater than 250 °C.

`O=C(c1cc2cc([N+](=O)[O-])ccc2[nH]1)N1CCC(Cc2ccccc2)CC1` came in with a melting point of 220 to 224 °C. With `C=C1C(O)C(CO)OC1n1ccc(NC(=O)c2ccccc2)nc1=O` (configuration not stated) the figure was greater than 300 °C; with `Cn1cnc(COc2nn3c(-c4ccccc4F)nnc3cc2C2(C)CCC(F)(F)CC2)n1`, 193 °C. Compound `CCOC(=O)CN(Cc1cccnc1)c1ccc(C(O)(C(F)(F)F)C(F)(F)F)cc1` returned a melting point of 55 °C.

`Cc1cc(=O)c2ccc(OCCCN3CCC(NC(=O)c4ccccc4[N+](=O)[O-])CC3)cc2o1`: the melting point is 185 to 187 °C. With `CCOC(=O)C1=C2Nc3ccccc3N2CC1` the figure was 269 to 271 °C; with `CCCOc1cc(C)c(NC(=O)C(C)Br)c(C)c1` (configuration not stated), 148 °C.

For the compound `Cc1noc2c1C(=O)C(CCCN1CCC(C(=O)c3ccc(F)cc3)CC1)CC2` (configuration not stated), the melting point fell in the range of 81 to 83 °C. The same measure for `O=C(O)C[C@@H]1Cc2cccc3c2[C@@H](CCC3)C1` (relative stereo): 115 to 116 °C; for `COC(=O)C1CCC2C(CCC3C(C)(C)CCCC23C)C(=O)C1` (configuration not stated): 67 to 68 °C; for `O=C1OC(=O)c2cc(N=C=S)ccc21`: 106 to 108 °C. With `Cc1ccc(-c2cccc(OC3SCC(O)C(O)C3O)c2)nc1` (configuration not stated) the figure was 185 to 189 °C; with `COc1ccc2c(c1)C(N1CCN(C)CC1)c1ccccc1CC2` (configuration not stated), 119 to 120 °C; with `COC(=O)C(Cc1cc(Br)c(O)c(Br)c1)NC(=O)C(F)(F)F` (configuration not stated), 136 to 137 °C. The same measure for `CC(C)N(C(=O)CNc1ccccc1N)c1ccccc1`: 110 to 112 °C.

On to `O=C(O)[C@H]1CC(=O)N(c2ccc(OCc3cccc(F)c3)cc2)C1`, for which the melting point was determined as 157 °C.

`COc1ccc(C=CC(=O)c2c(OC)cc(OC)cc2OC2OC(CO)C(O)C(O)C2NC(C)=O)cc1` (configuration not stated) showed a melting point of 197 to 200 °C. The same measure for `Cc1cc(-c2ccc(C(F)(F)F)cc2)nc(-c2ccnc(-c3cccc(S(N)(=O)=O)c3)c2)c1`: 238 °C; for `COc1ccc(-c2ccc3c(C(=O)c4ccn5c4CSC5c4cccnc4)c[nH]c3c2)cc1` (configuration not stated): 246 to 248 °C; for `CC(C)Oc1ccc(N2CCCN(c3cc[nH]c(=S)c3C#N)CC2)cc1`: 216 to 218 °C. With `CCOC(=O)c1cnc2ccc(OCC)nc2c1O` the figure was 275 to 278 °C; with `COc1cc(COc2cc(CC#N)n(-c3ccccc3)n2)ccc1OCc1nc(-c2ccco2)oc1C`, 141 to 142 °C; with `S=c1[nH]c2c(n1Nc1cccc(Cl)c1)CCCC2`, 148 °C. The same measure for `O=S(=O)(Nc1cccc(Br)c1)c1cc(S(=O)(=O)Nc2cccc(Br)c2)c2cc(O)ccc2c1`: 198 to 200 °C. Compound `c1ccc(COc2cccc(-c3nc(COc4ccc(CCCn5ccnc5)cc4)co3)c2)cc1` displayed a melting point of 112 to 113 °C.

With `Nc1cc(OCc2ccccc2)c(OCc2ccccc2)cc1C=C(Br)Br`, the melting point was in the range of 95 to 98 °C. With `CCOC(=O)C1=C(COCc2nccn2C)NC(C)=C(C(=O)OC)C1c1ccccc1Cl` (configuration not stated) the figure was 137 to 138 °C.

`Cc1cc(CNc2cccc(C(=O)O)c2C(=O)O)oc1C` came in with a melting point of 127 to 129 °C.

`O=C(CNC(=O)c1ccc(N2CCN(C(=O)c3ccccc3C(F)(F)F)CC2)nn1)c1ccccc1` had a melting point of 196 to 198 °C. The same measure for `COCC(O)Cn1c2ccc(OC)cc2c2c3c(c(-c4ccccc4)cc21)C(=O)NC3=O` (configuration not stated): 128 to 136 °C; for `CC(=O)c1ccc(OCCOc2ccc3ccccc3c2)cc1Cl`: 119 to 120 °C.

Turning to `CCOC(=O)CCNC(=O)CCCCNC(=O)OC(C)(C)C`, the melting point was 28 °C.

The compound `COc1ccc(C(=O)c2cccc([N+](=O)[O-])c2C)cc1` displayed a melting point of 110 to 113 °C.

In turn, `Cc1cc(-c2ncn3c(C(F)(F)F)cc(-c4ccc(Br)cc4)nc23)ccn1` came in with a melting point of 249 °C. Compound `CCOC(=O)c1nc(SC)nc(OC)c1OCc1ccccc1` came in with a melting point of 48 to 49 °C. The same measure for `O=c1c2ccc(Cl)cc2[nH]c2c(O)nn(CC#Cc3ccc(Cl)cc3)c(=O)c12`: 251 to 252 °C.

`Cc1ccccc1-n1ccc(=O)c(-c2ccnn2-c2ccccc2)n1` showed a melting point of 120 to 121 °C.

`CNc1nc(-c2cccc(C=O)c2)c2cc(OC)c(OC)cc2n1`: the melting point lay in the range of 110 to 112 °C. In the case of `O=c1cc(C(F)(F)F)nc(Cl)n1-c1cc(Oc2ncccn2)c(Cl)cc1F`, the melting point lay within 132 to 134 °C.

Source of the values: a melting point compilation (Tetko et al.; mined from patent text by program, amines drawn as free bases though some values may be those of a salt).
